Tests used:
[1] = Essential oils solubility; type: physicochemical; details: 7 wt % solubilizer in water, room temperature, after 5 hours
Protocol: 13 wt % solution of alkyl polyglucoside in distilled water was prepared and separately mixed with lemon oil, lavender oil, tea tree oil and patchouli oil at a ratio of 1:7 (w/w), and then the mixtures were added dropwise under stirring to water to a final concentration of 1 wt % essential oil and 7 wt % alkyl polyglucoside. […] The mixtures were then left at room temperature for 5 hours and observed for phase separation. Lauryl glucoside was used as a surfactant control with both lemon oil and lavender oil.

[2] = Foam measurement (Dynamic Foam Analyser, Kruss); type: physicochemical; details: 50 ml of 1.5 wt % solution, stirred at 3,000 rpm for 2 minutes
Protocol: Foaming was evaluated using a Dynamic Foam Analyser from Kruss. A volume of 50 ml of 1.5 wt % alkyl polyglucoside solution was added to the cylinder. […] PEG-80 sorbitan laurate and cocamidopropyl betaine were used as surfactant controls.

Foam height [2] [mm]	Substance	Essential oils solubility: lavender oil mixture appearance / phase separation ([1]; 1 wt % lavender oil)	Essential oils solubility: lemon oil mixture appearance / phase separation ([1]; 1 wt % lemon oil)
–	lauryl glucoside	white and cloudy, and had phase separated	white and cloudy, and had phase separated
78	cocamidopropyl betaine	–	–

Reference: US20230227878A1, “PROCESS FOR PREPARING SURFACTANT” (Enza Biotech AB, priority 2020, published 2023)
